For 16 compounds, IC50 results are on record in patent US5631222A, “Endothelin-antagonizing peptide” (Kyowa Hakko Kogyo Co., Ltd., priority 1993, dated 1997).

Positions of bridges follow the written chain, without caps; N, C: chain ends. Non-standard residues stand in square brackets, D forms with d. Residues, ends and D or L forms follow the SMILES beside them. NMeI = CC[C@H](C)[C@H](NC)C(=O)O; 2Thi = N[C@@H](Cc1cccs1)C(=O)O; Cha = N[C@@H](CC1CCCCC1)C(=O)O; Nva = CCC[C@H](N)C(=O)O; Abu = CC[C@H](N)C(=O)O

The target in the test is T1, endothelin receptor (Bos taurus, UniProt P28088).
T1 construct: the suspension was used as a membrane fraction liquid; from tissue; host or cells: bovine cerebellum membrane fraction
T1 sequence (P28088 27-441): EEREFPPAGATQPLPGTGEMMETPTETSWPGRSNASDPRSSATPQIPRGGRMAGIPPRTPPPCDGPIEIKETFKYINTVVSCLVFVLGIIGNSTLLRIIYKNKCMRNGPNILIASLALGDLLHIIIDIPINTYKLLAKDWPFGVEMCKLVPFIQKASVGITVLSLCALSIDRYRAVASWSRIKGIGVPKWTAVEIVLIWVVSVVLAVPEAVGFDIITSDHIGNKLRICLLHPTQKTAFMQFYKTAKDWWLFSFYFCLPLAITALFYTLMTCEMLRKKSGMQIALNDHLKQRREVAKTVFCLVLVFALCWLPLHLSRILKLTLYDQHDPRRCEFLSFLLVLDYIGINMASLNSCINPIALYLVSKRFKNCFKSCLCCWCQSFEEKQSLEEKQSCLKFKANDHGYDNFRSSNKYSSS
Description: Endothelin receptor-antagonizing activity: inhibition of 125I-endothelin-1 binding to bovine cerebellum membrane fraction. The conditions noted are these: 125I-Endothelin-1, bovine cerebellum membrane fraction, 25° C. for 2 hours; read-out: IC50: Concentration causing 50% inhibition of endothelin1 binding. The protocol: Bovine cerebellum tissue was homogenized at 4° C. by using POLYTRON (type PT10/35, manufactured by Kinematic Gmbh Co.) in a buffer solution A (1 mM NaHCO3, 5 mM ethylenediaminetetraacetic acid, 5 μg/ml leupeptin, 5 μg/ml pepstatin A, 40 μM phenylmethylsulfonyl fluoride, pH 8.3).
The obtained suspension was centrifuged for 10 minutes at 8,000 G and 4° C., and the resulting supernatant was centrifuged for 60 minutes at 40,000 G and 4° C. to obtain pellets. The obtained pellets were suspended in a buffer solution A and again centrifuged for 60 minutes at 40,000 G and 4° C. The resulting solid substance was prepared as a suspension containing 2 mg/ml of protein, and the suspension was used as a membrane fraction liquid. […] These mixtures were incubated at 25° C. for 2 hours, and then filtered with a GF/B glass filter (produced by Whatman Co.). […] The inhibition ratio against endothelin receptor binding activity was calculated according to the following equation:
Inhibition ratio (%)=(C-A/C-B)×100
B: Radioactivity in the presence of unlabelled endothelin-1
C: Radioactivity in the absence of both of the compound shown in Table 2 and unlabelled endothelin-1

`CC[C@H](C)[C@H](NC(=O)[C@H](CCSC)NC(=O)[C@H](CO)NC(=O)[C@H](CC(C)C)NC(=O)[C@H](Cc1c[nH]cn1)NC(=O)[C@H](C)NC(=O)[C@@H](Cc1ccccc1)NC(=O)[C@H](Cc1ccc(O)cc1)NC(=O)[C@@H](NC(=O)[C@H](Cc1c[nH]c2ccccc12)NC(=O)[C@H](CC(=O)O)NC(=O)[C@@H]1CCCN1C(=O)[C@H](C)NC(=O)[C@@H](NC(=O)CNC(=O)[C@H](Cc1c[nH]cn1)NC(=O)[C@H](Cc1c[nH]c2ccccc12)NC(=O)[C@H](CC(N)=O)NC(=O)CN)[C@@H](C)O)C(C)C)C(=O)N[C@@H](Cc1c[nH]c2ccccc12)C(=O)O` [Compound 45, HGlyAsnTrpHisGlyThrAlaProAspTrpValTyrD-PheAlaHisLeuSerMetIleTrpOH] (H-GNWHGTAPDWVY[dF]AHLSMIW-OH): the IC50 stood at 3.3 nM.
For the compound H-GNWHGTAPDWPYFAHLDIIW-OH [Compound 47], the IC50 stood at 4.2 nM.
In the case of `CCC[C@H](NC(=O)[C@@H](Cc1c[nH]c2ccccc12)NC(=O)[C@H](C)NC(=O)[C@H](Cc1ccccc1)NC(=O)[C@H](Cc1ccc(O)cc1)NC(=O)[C@@H](NC(=O)[C@H](Cc1c[nH]c2ccccc12)NC(=O)[C@H](CC(=O)O)NC(=O)[C@@H]1CCCN1C(=O)[C@H](C)NC(=O)[C@@H](NC(=O)CNC(=O)[C@H](Cc1c[nH]cn1)NC(=O)[C@H](Cc1c[nH]c2ccccc12)NC(=O)[C@H](CC(N)=O)NC(=O)CN)[C@@H](C)O)C(C)C)C(=O)N[C@@H](CCC(=O)O)C(=O)N[C@H](C(=O)N[C@@H](C(=O)N[C@@H](Cc1c[nH]c2ccccc12)C(=O)O)[C@H](C)CC)[C@@H](C)CC` [Compound 44, HGlyAsnTrpHisGlyThrAlaProAspTrpValTyrPheAlaD-TrpNvaGluIleD-IleTrpOH] (H-GNWHGTAPDWVYFA[dW][Nva]EI[dI]W-OH), the IC50 is 290 nM.
The value for `CCC[C@H](NC(=O)[C@H](Cc1c[nH]cn1)NC(=O)[C@H](C)NC(=O)[C@H](Cc1ccccc1)NC(=O)[C@H](Cc1ccc(O)cc1)NC(=O)[C@@H](NC(=O)[C@H](Cc1c[nH]c2ccccc12)NC(=O)[C@H](CC(=O)O)NC(=O)[C@@H]1CCCN1C(=O)[C@H](C)NC(=O)[C@@H](NC(=O)CNC(=O)[C@H](Cc1c[nH]cn1)NC(=O)[C@H](Cc1c[nH]c2ccccc12)NC(=O)[C@H](CC(N)=O)NC(=O)CN)[C@@H](C)O)C(C)C)C(=O)N[C@H](C(=O)N[C@@H](Cc1cccs1)C(=O)N[C@H](C(=O)N[C@@H](Cc1c[nH]c2ccccc12)C(=O)O)[C@@H](C)CC)[C@@H](C)O` [Compound 29, HGlyAsnTrpHisGlyThrAlaProAspTrpValTyrPheAlaHisNvaThrThiIleTrpOH] (H-GNWHGTAPDWVYFAH[Nva]T[2Thi]IW-OH) was 0.37 nM.
The value for `CC[C@H](C)[C@H](NC(=O)[C@H](Cc1cccs1)NC(=O)[C@@H](NC(=O)[C@H](CC(C)C)NC(=O)[C@H](Cc1c[nH]cn1)NC(=O)[C@@H](C)NC(=O)[C@H](Cc1ccccc1)NC(=O)[C@H](Cc1ccc(O)cc1)NC(=O)[C@@H](NC(=O)[C@H](Cc1c[nH]c2ccccc12)NC(=O)[C@H](CC(=O)O)NC(=O)[C@@H]1CCCN1C(=O)[C@H](C)NC(=O)[C@@H](NC(=O)CNC(=O)[C@H](Cc1c[nH]cn1)NC(=O)[C@H](Cc1c[nH]c2ccccc12)NC(=O)[C@H](CC(N)=O)NC(=O)CN)[C@@H](C)O)C(C)C)[C@@H](C)O)C(=O)N[C@@H](Cc1c[nH]c2ccccc12)C(=O)O` [Compound 27, HGlyAsnTrpHisGlyThrAlaProAspTrpValTyrPheD-AlaHisLeuThrThiIleTrpOH] (H-GNWHGTAPDWVYF[dA]HLT[2Thi]IW-OH) was 4.9 nM; that for “H-GDWKGTSPDWVYFAHLDIIW-OH [Compound 6, HGlyAspTrpLysGlyThrSerProAspTrpValTyrPheAlaHisLeuAsplleIleTrpOH]” was 0.11 nM; that for `CC[C@H](C)[C@H](NC(=O)[C@H](Cc1cccs1)NC(=O)CNC(=O)[C@H](CC(C)C)NC(=O)[C@H](Cc1c[nH]cn1)NC(=O)[C@H](C)NC(=O)[C@H](Cc1ccccc1)NC(=O)[C@H](Cc1ccc(O)cc1)NC(=O)[C@@H](NC(=O)[C@H](Cc1c[nH]c2ccccc12)NC(=O)[C@H](CC(=O)O)NC(=O)[C@@H]1CCCN1C(=O)[C@H](C)NC(=O)[C@@H](NC(=O)CNC(=O)[C@H](Cc1c[nH]cn1)NC(=O)[C@H](Cc1c[nH]c2ccccc12)NC(=O)[C@H](CC(N)=O)NC(=O)CN)[C@@H](C)O)C(C)C)C(=O)N[C@@H](Cc1c[nH]c2ccccc12)C(=O)O` [Compound 30, HGlyAsnTrpHisGlyThrAlaProAspTrpValTyrPheAlaHisLeuGlyThiIleTrpOH] (H-GNWHGTAPDWVYFAHLG[2Thi]IW-OH) was 170 nM.
The value for `CC[C@H](C)[C@H](NC(=O)[C@H](Cc1cccs1)NC(=O)[C@@H](NC(=O)[C@H](CC(C)C)NC(=O)[C@H](Cc1c[nH]cn1)NC(=O)[C@H](C)NC(=O)[C@H](Cc1ccccc1)NC(=O)[C@H](Cc1ccc(O)cc1)NC(=O)[C@@H](NC(=O)[C@H](Cc1c[nH]c2ccccc12)NC(=O)[C@@H]1CSSC[C@H](N)C(=O)N[C@@H](CC(=O)O)C(=O)N[C@@H](Cc2c[nH]c3ccccc23)C(=O)N[C@@H](CCCCN)C(=O)NCC(=O)N[C@@H]([C@@H](C)O)C(=O)N[C@@H](CO)C(=O)N2CCC[C@H]2C(=O)N1)C(C)C)[C@@H](C)O)C(=O)N[C@@H](Cc1c[nH]c2ccccc12)C(=O)O` [Compound 35] (H-CDWKGTSPCWVYFAHLT[2Thi]IW-OH; disulfide 1-9) was 1.6 nM; that for “H-GNWHTTAPDWVYFAHLDIIW-OH [Compound 2, HGlyAsnTrpHisThrThrAlaProAspTrpValTyrPheAlaHisLeuAspIleleTrpOH]” was 0.061 nM.
With `CC[C@H](C)[C@H](NC(=O)[C@H]([C@@H](C)CC)N(C)C(=O)[C@@H](NC(=O)[C@H](CC(C)C)NC(=O)[C@H](Cc1c[nH]cn1)NC(=O)[C@H](C)NC(=O)[C@H](Cc1ccccc1)NC(=O)[C@H](Cc1ccc(O)cc1)NC(=O)[C@@H](NC(=O)[C@H](Cc1c[nH]c2ccccc12)NC(=O)[C@H](CC(=O)O)NC(=O)[C@@H]1CCCN1C(=O)[C@H](C)NC(=O)[C@@H](NC(=O)CNC(=O)[C@H](Cc1c[nH]cn1)NC(=O)[C@H](Cc1c[nH]c2ccccc12)NC(=O)[C@H](CC(N)=O)NC(=O)CN)[C@@H](C)O)C(C)C)[C@@H](C)O)C(=O)N[C@@H](Cc1c[nH]c2ccccc12)C(=O)O` [Compound 24, HGlyAsnTrpHisGlyThrAlaProAspTrpValTyrPheAlaHisLeuThrMeIleIleTrpOH] (H-GNWHGTAPDWVYFAHLT[NMeI]IW-OH), the IC50 came out at 50 nM.
The value for `CC[C@H](C)[C@H](NC(=O)[C@H](CC1CCCCC1)NC(=O)[C@@H](NC(=O)[C@H](CC(C)C)NC(=O)[C@H](Cc1c[nH]cn1)NC(=O)[C@H](C)NC(=O)[C@H](Cc1ccccc1)NC(=O)[C@H](Cc1ccc(O)cc1)NC(=O)[C@@H](NC(=O)[C@H](Cc1c[nH]c2ccccc12)NC(=O)[C@@H]1CSSC[C@H](N)C(=O)N[C@@H](CC(N)=O)C(=O)N[C@@H](Cc2c[nH]c3ccccc23)C(=O)N[C@@H](Cc2c[nH]cn2)C(=O)NCC(=O)N[C@@H]([C@@H](C)O)C(=O)N[C@@H](C)C(=O)N2CCC[C@H]2C(=O)N1)C(C)C)[C@@H](C)O)C(=O)N[C@@H](Cc1c[nH]c2ccccc12)C(=O)O` [Compound 39] (H-CNWHGTAPCWVYFAHLT[Cha]IW-OH; disulfide 1-9) was 280 nM; that for H-GNWHGTAPDWVYFAHLTYIW-OH [Compound 19] was 1.2 nM.
The value for H-GNWHGTAPDWVYFAHLDIIF-OH [Compound 5] was 11 nM.
The value for H-GNWHGTAPDWVYFAHLTMIW-OH [Compound 18] was 1.7 nM; that for `CC[C@H](NC(=O)[C@@H](NC(=O)[C@H](CC(C)C)NC(=O)[C@H](Cc1c[nH]cn1)NC(=O)[C@H](C)NC(=O)[C@H](Cc1ccccc1)NC(=O)[C@H](Cc1ccc(O)cc1)NC(=O)[C@@H](NC(=O)[C@H](Cc1c[nH]c2ccccc12)NC(=O)[C@H](CC(=O)O)NC(=O)[C@@H]1CCCN1C(=O)[C@H](C)NC(=O)[C@@H](NC(=O)CNC(=O)[C@H](Cc1c[nH]cn1)NC(=O)[C@H](Cc1c[nH]c2ccccc12)NC(=O)[C@H](CC(N)=O)NC(=O)CN)[C@@H](C)O)C(C)C)[C@@H](C)O)C(=O)N[C@H](C(=O)N[C@@H](Cc1c[nH]c2ccccc12)C(=O)O)[C@@H](C)CC` [Compound 15, HGlyAsnTrpHisGlyThrAlaProAspTrpValTyrPheAlaHisLeuThrAbuIleTrpOH] (H-GNWHGTAPDWVYFAHLT[Abu]IW-OH) was 0.11 nM; that for “H-GNWHGTAPDAVYFAHLDIIW-OH [Compound 4, HGlyAsnTrPHisGlyThrAlaProAspAlaValTyrPheAlaHisLeuAspIleIleTrpOH]” was 0.22 nM.
